These are literature values, as cited in the CATMoS acute toxicity set (Mansouri et al. 2021).

For orientation: LD50 means the dose at which mortality reaches 50%.

The data set is described as follows: rat acute oral toxicity. Conditions: in vivo.
Turning to `CCCCCN(N=O)C(N)=O`, the LD50 was 560 mg/kg.

For the compound `CC(C)COCC(C)O` (configuration not stated), the LD50 was 4290 mg/kg.

On to `Cc1cc(=O)oc2cc(O)ccc12`, for which the LD50 was 3850 mg/kg.

For `C=C(C)C(=O)OCC(C)O` (configuration not stated), the LD50 was 11200 mg/kg.

Consider `O=S(=O)(O)CO`, for which the LD50 is 3200 mg/kg.

For `COc1cc2c(cc1OC)-c1c(OC)c(OC)cc3c1C(C2)N(C)CC3` (configuration not stated), the LD50 is 545 mg/kg.

Consider `OC[C@@H](O)[C@@H](O)[C@H](O)[C@H](O)CO`, for which the LD50 was 13500 mg/kg.

For the compound `NC(=S)c1c(Cl)cccc1Cl`, the LD50 is 757 mg/kg.

Consider `CC(C)CNC(=O)NS(=O)(=O)c1ccc(Cl)cc1`, for which the LD50 was 1100 mg/kg.

Turning to `CC(C)C(Br)C(=O)O` (configuration not stated), the LD50 was 769 mg/kg.

Turning to `N#CCNCC#N`, the LD50 was 710 mg/kg.

Consider `O=C(O)c1ccccc1C(=O)O`, for which the LD50 is 7900 mg/kg.

For the compound `O=C(O)[C@H](O)[C@@H](O)[C@H](O)[C@H](O)CO`, the LD50 is 10400 mg/kg.

With `CC(CC(C#N)(c1ccccc1)C(C)C)N(C)C` (configuration not stated), the LD50 was 250 mg/kg.

Take `O=CC=CC1CO1` (configuration not stated): the LD50 is 62 mg/kg.

With `Nc1ccc2c(O)cc(S(=O)(=O)O)cc2c1`, the LD50 was 11500 mg/kg.

As for `CCC(CC)C(=O)OCC(Br)(Br)Br`, the LD50 was 4000 mg/kg.

For `CN(C)S(=O)(=O)c1cc(Cl)c(N)cc1Cl`, the LD50 is 4090 mg/kg.

As for `CC1OCC(CN(C)C)O1` (configuration not stated), the LD50 is 575 mg/kg.

`CC(Cc1ccccc1)NCCn1cnc2c1c(=O)n(C)c(=O)n2C` (configuration not stated): the median lethal dose (LD50) is 100 mg/kg.

As to `CC=CCCCCCCCC(=O)OC`, the LD50 was 3000 mg/kg.

As for `Nc1ccc2c(S(=O)(=O)O)cccc2c1S(=O)(=O)O`, the median lethal dose (LD50) was 5430 mg/kg.

Consider `CCCCC(CC)CN` (configuration not stated), for which the LD50 is 450 mg/kg.

Turning to `CCc1cnc(C(=O)O)c(C(=O)O)c1`, the 50% lethal dose (LD50) is 3350 mg/kg.

Take `ClCCC(Cl)(Cl)Cl`: the median lethal dose (LD50) was 490 mg/kg.

Consider `CC(C)CCC(=O)O`, for which the LD50 is 2050 mg/kg.

As for `CC(C)(OO)c1cccc(C(C)(C)OO)c1`, the LD50 was 1500 mg/kg.

In the case of `CC(C)=C1CC[C@@H](C)CC1=O`, the LD50 is 470 mg/kg.

Regarding `CCOP(=S)(Oc1cccc2cccnc12)c1ccccc1` (configuration not stated), the LD50 is 150 mg/kg.

Take `Cc1c(-c2c(C)c(N)c3c(C(C)C)c(O)c(O)c(C=O)c3c2O)c(O)c2c(C=O)c(O)c(O)c(C(C)C)c2c1N`: the LD50 was 3270 mg/kg.

Regarding `CCCCN(CCCC)CC(C)O` (configuration not stated), the LD50 is 1990 mg/kg.

For the compound `N#CC(C#N)=C(C#N)C#N`, the LD50 was 5 mg/kg.

In the case of `CC(=O)Oc1ccccc1C=CC(=O)O`, the LD50 was 3150 mg/kg.

Take `Clc1ccc(Cn2c(CN3CCCC3)nc3ccccc32)cc1`: the LD50 was 1950 mg/kg.

Consider `CCCCCCCCC=CCCCCCCCC(=O)OCC1CO1` (configuration not stated), for which the median lethal dose (LD50) is 3520 mg/kg.

`ClC1=C(Cl)C2(Cl)C(C(Cl)Cl)CC1(Cl)C2(Cl)Cl` (configuration not stated): the LD50 is 1600 mg/kg.

For the compound `CCO[SiH](Cl)OCC`, the LD50 was 6300 mg/kg.

`CCOP(=O)(OCC)SCSCC`: the LD50 is 0.25 mg/kg.

As to `O=C(CCCl)OC1=C(OC(=O)CCCl)C(=O)OC1=O`, the LD50 was 7000 mg/kg.

For the compound `ClCC(Br)CBr` (configuration not stated), the 50% lethal dose (LD50) is 170 mg/kg.

Consider `OCC(F)(F)C(F)(F)C(F)(F)C(F)(F)C(F)(F)C(F)(F)C(F)(F)C(F)F`, for which the 50% lethal dose (LD50) was 4400 mg/kg.

For `CCCc1c(OCCCCc2nnn[nH]2)ccc(C(C)=O)c1O`, the LD50 is 650 mg/kg.

With `O=C1c2ccccc2C(=O)C1c1ccc(Cl)cc1`, the LD50 is 290 mg/kg.

As to `CCCCSC(C)C1(CC)C(=O)N=C(O)NC1=O` (configuration not stated), the LD50 is 582 mg/kg.

`ClC1=C(Cl)C2(Cl)C3C4OC4C(Cl)C3C1(Cl)C2(Cl)Cl` (configuration not stated): the LD50 is 15 mg/kg.

For the compound `CCOC(C1=NCC(C)(C)CN1)c1cccc2ccccc12` (configuration not stated), the LD50 was 55 mg/kg.

Take `CC(C)=CC=O`: the LD50 is 690 mg/kg.

`CN1COCN(Cc2cnc(Cl)s2)C1=N[N+](=O)[O-]`: the LD50 is 1560 mg/kg.

`CC(=O)OCc1ccc(C(C)C)cc1`: the LD50 was 1450 mg/kg.

In the case of `Nc1c2c(nc3ccccc13)CCCC2O` (configuration not stated), the LD50 is 176 mg/kg.

As for `CCP(=S)(CC)Oc1cc(Cl)c(Cl)cc1Cl`, the LD50 is 100 mg/kg.

For the compound `CN(C)[SiH](N(C)C)N(C)C`, the LD50 was 594 mg/kg.

For the compound `CNC(=O)Oc1ccccc1C1OCC(C)(C)O1` (configuration not stated), the LD50 was 110 mg/kg.

Consider `CCOC(C1=NCC(C)(C)CN1)c1cccc(F)c1` (configuration not stated), for which the LD50 was 750 mg/kg.

With `O=C(Cc1ccc(-c2ccccc2)cc1)Nc1ccccn1`, the LD50 was 1860 mg/kg.

Consider `CCc1nc(N)nc(N)c1-c1ccc(Cl)cc1`, for which the median lethal dose (LD50) is 440 mg/kg.

Take `COc1cc(C(C)=O)ccc1OCCCCN1CCN(c2ccccc2)CC1`: the LD50 is 573 mg/kg.

Regarding `COC(C)CCOC(C)=O` (configuration not stated), the LD50 is 4210 mg/kg.

Take `CN1CCCC(CN2c3ccccc3Sc3ccccc32)C1` (configuration not stated): the LD50 is 1000 mg/kg.

Consider `CC(C)(C)N=NC(C)(C)O`, for which the LD50 was 329 mg/kg.

As for `CCCCCCCCCCCCCCCCCCOP(=O)([O-])OCC[N+]1(C)CCCCC1`, the LD50 is 631 mg/kg.

In the case of `O=C(O)CCCOc1ccc(Cl)cc1Cl`, the LD50 was 700 mg/kg.
